Results from ChEMBL document CHEMBL1201862, “PubChem BioAssay data set” (2004).
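Results reflect a 48-hour exposure of cells in 96-well plates to compound at five concentrations. GI50: concentration for 50% inhibition of growth.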 Active and inactive are the calls of the source. Cut-off read from the data, not from the text of the source: active = GI50 up to about 1.1 µM and inactive = higher.

Assays:
Experiment in all cases: growth of human tumour cells (NCI), 48 h
UACC-62 = system: UACC-62
M14 = system: M14
COLO 205 = system: COLO 205
OVCAR-4 = system: OVCAR-4
HCC 2998 = system: HCC 2998
NCI-H226 = system: NCI-H226
NCI-H460 = system: NCI-H460
UO-31 = system: UO-31
UACC-257 = system: UACC-257
SK-MEL-28 = system: SK-MEL-28
SK-OV-3 = system: SK-OV-3
HCT-116 = system: HCT-116
SNB-19 = system: SNB-19
SW-620 = system: SW-620
CAKI-1 = system: CAKI-1
OVCAR-3 = system: OVCAR-3
SK-MEL-5 = system: SK-MEL-5
A549 = system: A549
RPMI-8226 = system: RPMI-8226
NCI-H23 = system: NCI-H23

Measured: GI50

CSC1NC(c2ccccc2)=C(C#N)C(=O)N1C1OCC(OC(C)=O)C(OC(C)=O)C1OC(C)=O (stereo not given)
inactive: UACC-62 > 100 µM | M14 > 100 µM | COLO 205 > 100 µM | OVCAR-4 > 100 µM | HCC 2998 > 100 µM | NCI-H226 > 100 µM | NCI-H460 > 100 µM | UO-31 > 100 µM | UACC-257 > 100 µM | SK-MEL-28 > 100 µM | SK-OV-3 > 100 µM | HCT-116 47.9 µM | SNB-19 > 100 µM | SW-620 > 100 µM | CAKI-1 > 100 µM | OVCAR-3 > 100 µM | SK-MEL-5 > 100 µM | A549 > 100 µM | RPMI-8226 > 100 µM | NCI-H23 > 100 µM
